# Values joined by “and” are separate entries in the source; they are usually repeats but may differ in a detail not shown here. Identical values can stand only once.
# Assays:
# Format in all cases: cell-based
# microbial load [1] = experiment: Microbial load reduction on CTAB-coated polyester cotton fabric, electric field with varying capacitance; details: for Microbial Load Reduction (Log10 Scale): polyester cotton fabric 90:10, 0.02±0.005% w/v coating, electric field 4 kV/cm DC
# Procedure: The effect of QAC coating and varying electric field application on solid surfaces was analysed. The solid surface analysed was polyester cotton fabric in the ratio 90:10. The procedure for coating of QAC (CTAB) onto the said polyester cotton fabric was identical to the procedure described in Example 1. The CTAB concentration employed was 0.02±0.005% w/v and the final coated amount of QAC (CTAB) was between 0.01-0.05 mg/cm^2 of the solid surface. The electric field in this experiment was applied via. switch mode power supply (SMPS).
# microbial load [2] = experiment: Microbial load reduction on cotton cloth coated with quaternary ammonium compound alone; details: no electric field
# Procedure: The solid surface (cotton cloth) was suspended in a solution containing cetyltrimethylammonium bromide (CTAB) or alkyl dimethyl benzyl ammonium chloride (benzalkonium chloride) at various concentrations for about 2 hours. The solid surfaces were then heat dried in a furnace where the temperature was set at about 80° C., for about 8 hours. Once dried, the solid surfaces coated with QAC were ready to be used for various applications.
# Reduction in microbial load was analysed at different concentrations of QACs.
# microbial load [3] = experiment: Microbial load reduction on QAC-coated metal surface (aluminium plate) with or without electric field
# Procedure: The effect of QAC coating and electric field application on non-flexible/hard solid surfaces was analysed. The solid surface analysed was a metal surface (aluminium plate). The coating procedure of QAC (cetrimonium salt—CTAB) was identical to the procedure described in Example 1. The final coated amount of CTAB was between 0.01-0.05 mg/cm^2 of the solid surface. The electric field in this experiment was applied via. switch mode power supply (SMPS) with a voltage of 4 kV/cm coupled with a capacitance of 0.05 μF for various time-periods.
# It was observed that when the metal was coated with low concentration of cetrimonium salt (CTAB) followed by application of electric field, the subjected microbial load was completely eliminated (>7 log10 reduction in microbial load or >99.99999% reduction in microbial load) within 10 minutes [Experiment No. 4]. […] Lastly, under normal conditions, when the metal was left undisturbed, the microbial load remained largely unaltered over a period of 30 minutes [Experiment No. 1].
# microbial load [4] = experiment: Microbial load reduction on CTAB-coated polyester cotton fabric, electric field with varying voltage; details: for Microbial load reduction (Log10 scale) at 10 mins: polyester cotton fabric, 0.02±0.005% w/v coating, capacitance 0.05 μF
# Procedure: Another set of experiments were conducted wherein the procedure for coating of QAC (CTAB) onto the polyester cotton fabric was identical to the procedure described in Example 1. The CTAB concentration employed was 0.02±0.005% w/v and the final coated amount of QAC (CTAB) was between 0.01-0.05 mg/cm^2 of the solid surface. The electric field in this experiment was applied via. switch mode power supply (SMPS).
# microbial load [5] = experiment: Microbial load reduction on QAC-coated cotton cloth with or without electric field; details: for Microbial Load Reduction (Log10 Scale): cotton cloth coated with 0.01% w/v
# Procedure: The effect of QAC coating and electric field application on flexible solid surfaces was analysed. The solid surface analysed was fabric (cotton cloth). The procedure for coating of QAC (CTAB or benzalkonium chloride) onto the cotton cloth was identical to the procedure described in Example 1. The final coated amount of QAC (CTAB or benzalkonium chloride) was between 0.01-0.05 mg/cm^2 of the solid surface. The electric field in this experiment was applied via. switch mode power supply (SMPS) with a voltage of 4 kV/cm coupled with a capacitance of 0.05 μF for various time-periods.
# Reduction in microbial load was analysed using different methods.
compound,measurement,setting,value
"CCCCCCCCCCCCCCCC[N+](C)(C)C.[Br-] [CTAB, cetyltrimethylammonium bromide]",reduction in the microbial load,microbial load [1]; coating followed by electric field at capacitance 0.00025 μF or 0.000025 μF (Experiments 4 and 5),a notable reduction in the microbial load was observed only around 5 minutes
same,Microbial Load Reduction (Log10 Scale),"microbial load [1]; capacitance 0.000025 μF, 3 mins",1.01 Log10
same,Microbial Load Reduction (Log10 Scale),"microbial load [1]; capacitance 0.000025 μF, 4 mins",2.09 Log10
same,Microbial Load Reduction (Log10 Scale),"microbial load [1]; capacitance 0.000025 μF, 5 mins",3.20 Log10
same,Microbial Load Reduction (Log10 Scale),"microbial load [1]; capacitance 0.00025 μF, 3 mins",1.01 Log10
same,Microbial Load Reduction (Log10 Scale),"microbial load [1]; capacitance 0.00025 μF, 4 mins",3.20 Log10
same,Microbial Load Reduction (Log10 Scale),"microbial load [1]; capacitance 0.00025 μF, 5 mins",4.44 Log10
same,Microbial Load Reduction (Log10 Scale),"microbial load [1]; capacitance 0.0025 μF, 3 mins",2.12 Log10
same,Microbial Load Reduction (Log10 Scale),"microbial load [1]; capacitance 0.0025 μF, 4 mins",3.27 Log10
same,Microbial Load Reduction (Log10 Scale),"microbial load [1]; capacitance 0.0025 μF, 5 mins",6.78 Log10
same,Microbial Load Reduction (Log10 Scale),"microbial load [1]; capacitance 0.025 μF, 3 mins",4.32 Log10
same,Microbial Load Reduction (Log10 Scale),"microbial load [1]; capacitance 0.025 μF, 4 mins",6.78 Log10
same,Microbial Load Reduction (Log10 Scale),"microbial load [1]; capacitance 0.025 μF, 5 mins",6.78 Log10
same,Microbial Load Reduction (Log10 Scale),"microbial load [1]; capacitance 0.05 μF, 3 mins",4.44 Log10
same,Microbial Load Reduction (Log10 Scale),"microbial load [1]; capacitance 0.05 μF, 4 mins",6.78 Log10
same,Microbial Load Reduction (Log10 Scale),"microbial load [1]; capacitance 0.05 μF, 5 mins",6.78 Log10
same,Microbial Load Reduction (Log10 Scale),"microbial load [2]; cotton cloth coated with 0.01% w/v, 0 mins",0.00 Log10
same,Microbial Load Reduction (Log10 Scale),"microbial load [2]; cotton cloth coated with 0.01% w/v, 10 mins",1.11 Log10
same,Microbial Load Reduction (Log10 Scale),"microbial load [2]; cotton cloth coated with 0.01% w/v, 30 mins",2.52 Log10
same,Microbial Load Reduction (Log10 Scale),"microbial load [2]; cotton cloth coated with 0.01% w/v, 45 mins",4.35 Log10
same,Microbial Load Reduction (Log10 Scale),"microbial load [2]; cotton cloth coated with 0.01% w/v, 60 mins",7.60 Log10
same,Microbial Load Reduction (Log10 Scale),"microbial load [2]; cotton cloth coated with 0.01% w/v, 90 mins",7.60 Log10
same,Microbial Load Reduction (Log10 Scale),"microbial load [2]; cotton cloth coated with 0.05% w/v, 0 mins",0.00 Log10
same,Microbial Load Reduction (Log10 Scale),"microbial load [2]; cotton cloth coated with 0.05% w/v, 10 mins",1.18 Log10
same,Microbial Load Reduction (Log10 Scale),"microbial load [2]; cotton cloth coated with 0.05% w/v, 30 mins",2.54 Log10
same,Microbial Load Reduction (Log10 Scale),"microbial load [2]; cotton cloth coated with 0.05% w/v, 45 mins",5.12 Log10
same,Microbial Load Reduction (Log10 Scale),"microbial load [2]; cotton cloth coated with 0.05% w/v, 60 mins",7.32 Log10
same,Microbial Load Reduction (Log10 Scale),"microbial load [2]; cotton cloth coated with 0.05% w/v, 90 mins",7.32 Log10
same,Microbial Load Reduction (Log10 Scale),"microbial load [2]; cotton cloth coated with 0.1% w/v, 0 mins",0.00 Log10
same,Microbial Load Reduction (Log10 Scale),"microbial load [2]; cotton cloth coated with 0.1% w/v, 10 mins",7.41 Log10
same,Microbial Load Reduction (Log10 Scale),"microbial load [2]; cotton cloth coated with 0.1% w/v, 30 mins",7.41 Log10
same,Microbial Load Reduction (Log10 Scale),"microbial load [2]; cotton cloth coated with 0.1% w/v, 45 mins",7.41 Log10
same,Microbial Load Reduction (Log10 Scale),"microbial load [2]; cotton cloth coated with 0.1% w/v, 60 mins",7.41 Log10
same,Microbial Load Reduction (Log10 Scale),"microbial load [2]; cotton cloth coated with 0.1% w/v, 90 mins",7.41 Log10
same,Microbial Load Reduction (Log10 Scale),"microbial load [2]; cotton cloth coated with 0.25% w/v, 0 mins",0.00 Log10
same,Microbial Load Reduction (Log10 Scale),"microbial load [2]; cotton cloth coated with 0.25% w/v, 10 mins",7.45 Log10
same,Microbial Load Reduction (Log10 Scale),"microbial load [2]; cotton cloth coated with 0.25% w/v, 30 mins",7.45 Log10
same,Microbial Load Reduction (Log10 Scale),"microbial load [2]; cotton cloth coated with 0.25% w/v, 45 mins",7.45 Log10
same,Microbial Load Reduction (Log10 Scale),"microbial load [2]; cotton cloth coated with 0.25% w/v, 60 mins",7.45 Log10
same,Microbial Load Reduction (Log10 Scale),"microbial load [2]; cotton cloth coated with 0.25% w/v, 90 mins",7.45 Log10
same,Microbial Load Reduction (Log10 Scale),"microbial load [2]; cotton cloth coated with 0.5% w/v, 0 mins",0.00 Log10
same,Microbial Load Reduction (Log10 Scale),"microbial load [2]; cotton cloth coated with 0.5% w/v, 10 mins",7.00 Log10
same,Microbial Load Reduction (Log10 Scale),"microbial load [2]; cotton cloth coated with 0.5% w/v, 30 mins",7.00 Log10
same,Microbial Load Reduction (Log10 Scale),"microbial load [2]; cotton cloth coated with 0.5% w/v, 45 mins",7.00 Log10
same,Microbial Load Reduction (Log10 Scale),"microbial load [2]; cotton cloth coated with 0.5% w/v, 60 mins",7.00 Log10
same,Microbial Load Reduction (Log10 Scale),"microbial load [2]; cotton cloth coated with 0.5% w/v, 90 mins",7.00 Log10
same,Microbial Load Reduction (Log10 Scale),"microbial load [2]; cotton cloth coated with 0.75% w/v, 0 mins",0.00 Log10
same,Microbial Load Reduction (Log10 Scale),"microbial load [2]; cotton cloth coated with 0.75% w/v, 10 mins",7.78 Log10
same,Microbial Load Reduction (Log10 Scale),"microbial load [2]; cotton cloth coated with 0.75% w/v, 30 mins",7.78 Log10
same,Microbial Load Reduction (Log10 Scale),"microbial load [2]; cotton cloth coated with 0.75% w/v, 45 mins",7.78 Log10
same,Microbial Load Reduction (Log10 Scale),"microbial load [2]; cotton cloth coated with 0.75% w/v, 60 mins",7.78 Log10
same,Microbial Load Reduction (Log10 Scale),"microbial load [2]; cotton cloth coated with 0.75% w/v, 90 mins",7.78 Log10
same,Microbial Load Reduction (Log10 Scale),"microbial load [3]; Metal (aluminium plate) + QAC 0.01% w/v + Electric Field (SMPS, 4 kV/cm, 0.05 μF), 0 mins",0.00 Log10
same,Microbial Load Reduction (Log10 Scale),"microbial load [3]; Metal (aluminium plate) + QAC 0.01% w/v + Electric Field (SMPS, 4 kV/cm, 0.05 μF), 5 mins",5.55 Log10
same,Microbial Load Reduction (Log10 Scale),"microbial load [3]; Metal (aluminium plate) + QAC 0.01% w/v + Electric Field (SMPS, 4 kV/cm, 0.05 μF), 10 mins",7.51 Log10
same,Microbial Load Reduction (Log10 Scale),"microbial load [3]; Metal (aluminium plate) + QAC 0.01% w/v + Electric Field (SMPS, 4 kV/cm, 0.05 μF), 20 mins",7.51 Log10
same,Microbial Load Reduction (Log10 Scale),"microbial load [3]; Metal (aluminium plate) + QAC 0.01% w/v + Electric Field (SMPS, 4 kV/cm, 0.05 μF), 30 mins",7.51 Log10
same,Microbial Load Reduction (Log10 Scale),"microbial load [3]; Metal (aluminium plate) + QAC 0.01% w/v, no electric field, 0 mins",0.00 Log10
same,Microbial Load Reduction (Log10 Scale),"microbial load [3]; Metal (aluminium plate) + QAC 0.01% w/v, no electric field, 5 mins",0.22 Log10
same,Microbial Load Reduction (Log10 Scale),"microbial load [3]; Metal (aluminium plate) + QAC 0.01% w/v, no electric field, 10 mins",0.42 Log10
same,Microbial Load Reduction (Log10 Scale),"microbial load [3]; Metal (aluminium plate) + QAC 0.01% w/v, no electric field, 20 mins",0.57 Log10
same,Microbial Load Reduction (Log10 Scale),"microbial load [3]; Metal (aluminium plate) + QAC 0.01% w/v, no electric field, 30 mins",0.95 Log10
same,reduction in the microbial load,"microbial load [3]; metal coated with CTAB alone, at 30 minutes (Experiment No. 3)",no significant reduction in the microbial load
same,reduction in the microbial load,"microbial load [4]; coating followed by electric field at voltage lower than 2 kV/cm (0.5, 0.75, 1 or 1.25 kV/cm)",no notable reduction in the microbial load
same,Microbial load reduction (Log10 scale) at 10 mins,microbial load [4]; applied voltage 0.5 kV/cm,1.18 Log10
same,Microbial load reduction (Log10 scale) at 10 mins,microbial load [4]; applied voltage 0.75 kV/cm,1.22 Log10
same,Microbial load reduction (Log10 scale) at 10 mins,microbial load [4]; applied voltage 1 kV/cm,1.44 Log10
same,Microbial load reduction (Log10 scale) at 10 mins,microbial load [4]; applied voltage 1.25 kV/cm,1.68 Log10
same,Microbial load reduction (Log10 scale) at 10 mins,microbial load [4]; applied voltage 2 kV/cm,7.68 Log10
same,Microbial load reduction (Log10 scale) at 10 mins,microbial load [4]; applied voltage 2.5 kV/cm,8.78 Log10
same,Microbial load reduction (Log10 scale) at 10 mins,microbial load [4]; applied voltage 3 kV/cm,9.42 Log10
same,log10 reduction in microbial load,"microbial load [5]; coated cotton cloth not subjected to electric field, until 30 minutes (Experiment 1 Trial 1 and 3)",≤ 2.16 log10
same,Microbial Load Reduction (Log10 Scale),"microbial load [5]; With Electric Field (SMPS, 4 kV/cm, 0.05 μF), 0 mins",0.00 Log10
same,Microbial Load Reduction (Log10 Scale),"microbial load [5]; With Electric Field (SMPS, 4 kV/cm, 0.05 μF), 10 mins",7.48 Log10 and 7.30 Log10
same,Microbial Load Reduction (Log10 Scale),"microbial load [5]; With Electric Field (SMPS, 4 kV/cm, 0.05 μF), 30 mins",7.48 Log10 and 7.30 Log10
same,Microbial Load Reduction (Log10 Scale),"microbial load [5]; Without Electric Field, 0 mins",0.00 Log10
same,Microbial Load Reduction (Log10 Scale),"microbial load [5]; Without Electric Field, 10 mins",1.09 Log10 and 1.06 Log10
same,Microbial Load Reduction (Log10 Scale),"microbial load [5]; Without Electric Field, 30 mins",2.16 Log10 and 2.15 Log10

# Source: US12582731B2, “Method to decontaminate solid surface” (BIOMONETA RESEARCH PVT LTD, priority 2022, dated 2026)
